Experimental data reported in US20090311217A1, “3-SUBSTITUTED-1H-INDOLE COMPOUNDS, THEIR USE AS MTOR KINASE AND PI3 KINASE INHIBITORS, AND THEIR SYNTHESES” (priority 2008, published 2009).
Read-outs that look alike come from different tables or passages of the source.

Tests used:
Format in all cases: biochemical
[1] = molecular target: T1, human TOR (Homo sapiens, UniProt P42345); assay: mTOR enzyme assay (DELFIA, His6-S6K substrate); details: read-out: mTOR Kinase Avg. IC50
T1 construct: FLAG

[2] = molecular target: PI3K-alpha (Homo sapiens, UniProt P42336); assay: PI3K-alpha fluorescence polarization assay
Sequence of PI3K-alpha (P42336 whole entry, species assumed): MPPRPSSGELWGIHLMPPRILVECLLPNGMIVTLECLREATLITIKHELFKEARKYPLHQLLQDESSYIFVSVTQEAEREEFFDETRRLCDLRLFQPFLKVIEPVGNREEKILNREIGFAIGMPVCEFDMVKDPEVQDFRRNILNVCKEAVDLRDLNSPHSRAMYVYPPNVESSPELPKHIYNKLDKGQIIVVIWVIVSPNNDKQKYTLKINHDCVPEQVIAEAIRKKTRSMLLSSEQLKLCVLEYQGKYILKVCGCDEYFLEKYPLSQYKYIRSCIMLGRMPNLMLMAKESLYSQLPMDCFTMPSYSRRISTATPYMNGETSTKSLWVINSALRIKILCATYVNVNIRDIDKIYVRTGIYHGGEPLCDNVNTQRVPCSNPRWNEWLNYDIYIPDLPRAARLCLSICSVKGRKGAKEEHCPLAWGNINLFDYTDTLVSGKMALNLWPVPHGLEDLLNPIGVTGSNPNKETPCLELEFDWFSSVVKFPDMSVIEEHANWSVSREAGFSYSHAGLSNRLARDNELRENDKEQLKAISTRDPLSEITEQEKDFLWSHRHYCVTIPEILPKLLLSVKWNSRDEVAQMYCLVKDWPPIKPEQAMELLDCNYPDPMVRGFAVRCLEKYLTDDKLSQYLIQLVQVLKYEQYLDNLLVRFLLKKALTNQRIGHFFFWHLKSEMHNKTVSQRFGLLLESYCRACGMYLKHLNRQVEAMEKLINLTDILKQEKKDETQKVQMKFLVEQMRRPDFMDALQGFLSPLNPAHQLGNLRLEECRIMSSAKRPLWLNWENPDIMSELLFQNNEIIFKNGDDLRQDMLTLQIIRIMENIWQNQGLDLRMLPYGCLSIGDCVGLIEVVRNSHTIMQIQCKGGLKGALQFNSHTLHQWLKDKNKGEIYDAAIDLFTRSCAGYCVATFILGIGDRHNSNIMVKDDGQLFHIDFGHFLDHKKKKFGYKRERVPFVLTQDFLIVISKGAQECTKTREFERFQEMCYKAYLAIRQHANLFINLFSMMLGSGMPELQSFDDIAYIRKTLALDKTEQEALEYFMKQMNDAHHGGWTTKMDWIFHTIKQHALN
Sequence of PI3K-alpha (P27986 whole entry partner, species assumed): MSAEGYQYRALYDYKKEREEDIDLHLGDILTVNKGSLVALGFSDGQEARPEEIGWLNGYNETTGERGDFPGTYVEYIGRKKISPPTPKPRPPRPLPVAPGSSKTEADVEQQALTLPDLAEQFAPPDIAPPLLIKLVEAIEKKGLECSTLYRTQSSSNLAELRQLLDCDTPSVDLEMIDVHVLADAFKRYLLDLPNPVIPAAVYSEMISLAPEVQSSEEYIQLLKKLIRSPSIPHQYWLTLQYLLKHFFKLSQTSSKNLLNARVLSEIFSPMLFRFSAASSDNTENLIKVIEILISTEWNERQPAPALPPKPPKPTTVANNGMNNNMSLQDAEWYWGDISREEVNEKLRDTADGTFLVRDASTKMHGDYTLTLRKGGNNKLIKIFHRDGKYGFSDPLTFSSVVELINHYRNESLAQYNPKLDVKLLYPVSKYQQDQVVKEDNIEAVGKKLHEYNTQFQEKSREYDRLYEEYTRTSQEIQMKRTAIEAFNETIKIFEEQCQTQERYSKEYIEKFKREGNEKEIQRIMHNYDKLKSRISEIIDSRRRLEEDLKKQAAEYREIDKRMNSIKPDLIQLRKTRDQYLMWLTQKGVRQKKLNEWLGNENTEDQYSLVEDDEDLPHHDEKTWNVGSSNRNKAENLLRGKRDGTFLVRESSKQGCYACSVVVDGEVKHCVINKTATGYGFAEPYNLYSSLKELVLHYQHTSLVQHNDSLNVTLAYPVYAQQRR

[3] = molecular target: PI3K-delta (Homo sapiens, UniProt O00329); assay: PI3K-delta fluorescence polarization assay; details: read-out: PI3Kδ Avg. IC50
Sequence of PI3K-delta (O00329 whole entry, species assumed): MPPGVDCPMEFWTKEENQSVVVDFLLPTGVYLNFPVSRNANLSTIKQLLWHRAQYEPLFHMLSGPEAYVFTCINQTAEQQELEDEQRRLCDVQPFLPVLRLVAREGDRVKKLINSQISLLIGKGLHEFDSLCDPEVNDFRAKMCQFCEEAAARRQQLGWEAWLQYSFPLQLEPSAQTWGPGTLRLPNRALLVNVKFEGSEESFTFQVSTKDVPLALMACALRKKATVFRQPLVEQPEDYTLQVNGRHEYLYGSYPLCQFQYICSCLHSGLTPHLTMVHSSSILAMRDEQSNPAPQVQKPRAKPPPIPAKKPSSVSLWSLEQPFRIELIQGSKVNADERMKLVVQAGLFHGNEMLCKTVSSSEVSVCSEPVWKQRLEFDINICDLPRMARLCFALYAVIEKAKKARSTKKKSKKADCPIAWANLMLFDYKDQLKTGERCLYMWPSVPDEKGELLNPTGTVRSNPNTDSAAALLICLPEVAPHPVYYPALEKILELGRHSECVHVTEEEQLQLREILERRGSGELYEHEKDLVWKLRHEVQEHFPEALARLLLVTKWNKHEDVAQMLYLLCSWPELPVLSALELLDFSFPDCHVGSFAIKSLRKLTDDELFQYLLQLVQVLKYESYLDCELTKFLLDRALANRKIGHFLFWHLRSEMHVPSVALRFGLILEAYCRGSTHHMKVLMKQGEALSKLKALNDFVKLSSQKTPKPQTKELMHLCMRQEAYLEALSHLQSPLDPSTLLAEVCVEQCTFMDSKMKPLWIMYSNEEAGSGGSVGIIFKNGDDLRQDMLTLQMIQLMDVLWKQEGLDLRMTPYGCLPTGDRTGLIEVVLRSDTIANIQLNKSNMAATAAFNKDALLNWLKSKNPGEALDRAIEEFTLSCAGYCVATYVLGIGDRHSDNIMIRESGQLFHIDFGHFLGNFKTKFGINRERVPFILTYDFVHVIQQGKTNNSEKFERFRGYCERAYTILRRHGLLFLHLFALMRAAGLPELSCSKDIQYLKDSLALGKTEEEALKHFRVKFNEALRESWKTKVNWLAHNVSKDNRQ
Sequence of PI3K-delta (P27986 whole entry partner, species assumed): as the sequence (P27986 whole entry partner, species assumed) above

[4] = molecular target: PI3K-gamma (Homo sapiens, UniProt P48736); assay: PI3K-gamma fluorescence polarization assay; details: PI3Kγ Avg. IC50
Sequence of PI3K-gamma (P48736 whole entry, species assumed, the tested form may be a part): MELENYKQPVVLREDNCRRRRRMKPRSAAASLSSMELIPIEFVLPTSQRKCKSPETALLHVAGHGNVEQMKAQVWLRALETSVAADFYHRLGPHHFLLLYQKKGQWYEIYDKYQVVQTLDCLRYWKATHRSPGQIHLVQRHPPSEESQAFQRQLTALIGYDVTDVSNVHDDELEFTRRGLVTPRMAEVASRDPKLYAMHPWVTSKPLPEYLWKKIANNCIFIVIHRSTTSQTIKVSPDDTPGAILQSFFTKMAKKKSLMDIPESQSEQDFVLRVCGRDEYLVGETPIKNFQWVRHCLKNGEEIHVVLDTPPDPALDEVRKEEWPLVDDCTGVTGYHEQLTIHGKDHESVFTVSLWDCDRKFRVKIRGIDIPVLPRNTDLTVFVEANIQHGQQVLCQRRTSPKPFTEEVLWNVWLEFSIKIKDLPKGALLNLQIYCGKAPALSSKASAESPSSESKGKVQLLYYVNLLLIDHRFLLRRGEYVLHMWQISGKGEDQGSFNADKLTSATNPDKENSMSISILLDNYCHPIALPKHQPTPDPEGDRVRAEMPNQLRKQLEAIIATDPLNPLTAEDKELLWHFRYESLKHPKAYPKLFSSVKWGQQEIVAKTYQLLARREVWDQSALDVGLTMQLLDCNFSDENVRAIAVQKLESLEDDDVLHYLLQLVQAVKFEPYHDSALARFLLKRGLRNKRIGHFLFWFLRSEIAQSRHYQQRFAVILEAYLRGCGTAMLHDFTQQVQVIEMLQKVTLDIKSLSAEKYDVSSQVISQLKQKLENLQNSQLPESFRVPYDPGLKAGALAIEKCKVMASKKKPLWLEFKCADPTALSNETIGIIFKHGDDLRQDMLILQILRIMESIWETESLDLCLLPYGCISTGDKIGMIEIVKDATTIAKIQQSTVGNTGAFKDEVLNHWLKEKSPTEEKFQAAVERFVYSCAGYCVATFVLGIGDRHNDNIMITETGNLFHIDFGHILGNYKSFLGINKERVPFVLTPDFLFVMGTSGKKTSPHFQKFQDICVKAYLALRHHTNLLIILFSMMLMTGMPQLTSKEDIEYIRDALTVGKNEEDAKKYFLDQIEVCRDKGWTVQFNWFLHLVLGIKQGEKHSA
Procedure, shortened: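 FP competition read-out: PIP3 produced displaces BODIPY-TMR-IP4 (5 nM) from GST-GRP1 PH domain (100 nM). Kinase step: 5 ng enzyme, 2.5 μM diC8-PIP2, 25 μM ATP, pH 7 HEPES/MgCl2, 1 h, 25° C; EDTA stop.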

[5] = molecular target: PI3K-beta (Homo sapiens, UniProt P42338); assay: PI3K-beta fluorescence polarization assay; details: read-out: PI3Kβ Avg. IC50
Sequence of PI3K-beta (P42338 whole entry, species assumed): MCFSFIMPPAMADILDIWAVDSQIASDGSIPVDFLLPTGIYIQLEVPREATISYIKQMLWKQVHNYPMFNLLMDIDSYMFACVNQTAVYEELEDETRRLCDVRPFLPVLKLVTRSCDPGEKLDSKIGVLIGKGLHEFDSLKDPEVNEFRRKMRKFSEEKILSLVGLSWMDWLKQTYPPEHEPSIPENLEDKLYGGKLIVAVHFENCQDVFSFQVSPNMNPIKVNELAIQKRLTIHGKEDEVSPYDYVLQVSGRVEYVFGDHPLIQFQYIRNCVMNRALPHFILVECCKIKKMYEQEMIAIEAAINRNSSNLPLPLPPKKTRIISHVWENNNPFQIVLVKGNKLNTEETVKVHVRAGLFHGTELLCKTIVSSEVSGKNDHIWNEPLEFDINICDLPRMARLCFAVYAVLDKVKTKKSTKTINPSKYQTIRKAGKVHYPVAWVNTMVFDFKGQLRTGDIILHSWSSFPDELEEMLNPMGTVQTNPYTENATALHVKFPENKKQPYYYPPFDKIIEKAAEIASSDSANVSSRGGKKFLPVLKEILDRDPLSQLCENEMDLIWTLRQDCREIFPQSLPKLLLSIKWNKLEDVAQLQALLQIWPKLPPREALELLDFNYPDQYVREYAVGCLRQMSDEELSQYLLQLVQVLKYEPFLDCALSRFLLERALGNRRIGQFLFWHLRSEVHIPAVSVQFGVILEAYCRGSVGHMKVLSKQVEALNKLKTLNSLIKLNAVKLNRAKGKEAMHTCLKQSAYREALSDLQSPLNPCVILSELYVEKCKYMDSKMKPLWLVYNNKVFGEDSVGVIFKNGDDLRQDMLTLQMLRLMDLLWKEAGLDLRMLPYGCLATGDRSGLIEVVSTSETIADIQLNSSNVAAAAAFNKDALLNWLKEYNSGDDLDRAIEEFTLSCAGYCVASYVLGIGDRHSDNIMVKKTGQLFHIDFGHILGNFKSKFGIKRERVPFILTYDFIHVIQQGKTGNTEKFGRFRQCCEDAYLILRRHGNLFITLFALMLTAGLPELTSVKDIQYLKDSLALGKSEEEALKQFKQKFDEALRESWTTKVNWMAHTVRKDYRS
Sequence of PI3K-beta (P27986 whole entry partner, species assumed): as the sequence (P27986 whole entry partner, species assumed) above
Protocol: PI3K-Alpha, PI3K-Beta, PI3K-Gamma, and PI3K-delta Fluorescence Polarization Assay Protocols
PI3-Kinase reactions were performed in 5 mM HEPES, pH 7, 2.5 mM MgCl2, and 25 μM ATP, with diC8-PI(4,5)P2 (Echelon, Salt Lake City Utah) as substrate. Nunc 384-well black polypropylene fluorescent plates were used for PI3K assays. Reactions were quenched by the addition of EDTA to a final concentration of 10 mM. Final reaction volumes were 10 μl. For evaluation of PI3K inhibitors, 5 ng of enzyme (PI3K-alpha, beta, gamma, or delta) and 2.5 μM of substrate was used per […] reaction volume, and inhibitor concentrations ranged from 100 μM to 20 μM; the final level of DMSO in reactions never exceeded 2%. Reactions were allowed to proceed for one hour at 25° C. After 1 hour, GST-tagged GRP1 (general receptor for phosphoinositides) PH domain fusion protein was added to a final concentration of 100 nM, and BODIPY-TMRI(1,3,4,5)P4 (Echelon) was also added to a final concentration of 5 nM. Final sample volumes were 25 μl with a final DMSO concentration of 0.8%. Assay Plates were read on Perkin-Elmer Envision plate readers with appropriate filters for Tamra [BODIPY-TMRI(1,3,4,5)P4]. Data obtained were used to calculate enzymatic activity and enzyme inhibition by inhibitor compounds.

Row | Structure (SMILES) | IC50 [1] [nM] | IC50 ([2]; read-out: PI3Kα Avg. IC50) [nM] | IC50 [3] [nM] | IC50 [4] [nM] | IC50 [5] [nM] | IC50 ([2]; PI3Kα Avg. IC50) [nM]
1 | CCn1c(C)c(/C=C2\Oc3ccc(NC(=O)Nc4ccc(C(=O)N5CCN(C)CC5)cc4)cc3C2=O)c2cc(OC)ccc21 [Compound 620, 1-{(2Z)-2-[(1-ethyl-5-methoxy-2-methyl-1H-indol-3-yl)methylene]-3-oxo-2,3-dihydro-1-benzofuran-5-yl}-3-{4-[(4-methylpiperazin-1-yl)carbonyl]phenyl}urea] | 240 | 0.3 | 2 | – | – | –
2 | CNC(=O)Nc1ccc2c(c1)C(=O)/C(=C/c1c(-c3c(C)nn(C)c3C)[nH]c3ccc(OC)cc13)O2 [Compound 627, 1-[(2Z)-2-{[5-methoxy-2-(1,3,5-trimethyl-1H-pyrazol-4-yl)-1H-indol-3-yl]methylidene}-3-oxo-2,3-dihydro-1-benzofuran-5-yl]-3-methylurea] | – | 0.6 | 4.5 | 4.65 | 28.5 | –
3 | CCn1c(C)c(/C=C2\Oc3ccc(NC(=O)Nc4ccc(C(=O)N(C)CCN(C)C)cc4)cc3C2=O)c2cc(OC)ccc21 [Compound 639, N-[2-(dimethylamino)ethyl]-4-[({(2Z)-2-[(1-ethyl-5-methoxy-2-methyl-1H-indol-3-yl)methylene]-3-oxo-2,3-dihydro-1-benzofuran-5-yl}carbamoyl)amino]-N-methylbenzamide] | 12 | 0.33 | 1.45 | 3.42 | 5 | –
4 | COc1cc(F)c2[nH]c(-c3c(C)nn(C)c3C)c(/C=C3\Oc4ccc(NC(=O)Nc5ccc(C(=O)N(C)CCN(C)C)cc5)cc4C3=O)c2c1 [Compound 710, N-[2-(dimethylamino)ethyl]-4-({[(2Z)-2-{[7-fluoro-5-methoxy-2-(1,3,5-trimethyl-1H-pyrazol-4-yl)-1H-indol-3-yl]methylidene}-3-oxo-2,3-dihydro-1-benzofuran-5-yl]carbamoyl}amino)-N-methylbenzamide] | < 1 | 0.2 | 0.6 | 2.35 | 0.7 | –
5 | O=C1C(=Cc2c(-c3ccccc3)[nH]c3ccccc23)Oc2cc(O)cc(O)c21 [Example 14, 4,6-dihydroxy-2-[(2-phenyl-1H-indol-3-yl)methylene]-1-benzofuran-3(2H)-one] | 130 | – | 381 | 2780 | 736 | 1030
6 | O=C1/C(=C/c2c[nH]c3ccc(Br)cc23)Oc2cc(O)cc(O)c21 [Example 50, (2Z)-2-[(5-bromo-1H-indol-3-yl)methylene]-4,6-dihydroxy-1-benzofuran-3(2H)-one] | 3700 | – | 387 | 1620 | 358 | 422
7 | COc1ccc2[nH]c(-c3ccccc3)c(C=C3Oc4cc(O)cc(O)c4C3=O)c2c1 [Example 70, 4,6-dihydroxy-2-[(5-methoxy-2-phenyl-1H-indol-3-yl)methylene]-1-benzofuran-3(2H)-one] | < 30 | – | 5.3 | 13.4 | 26 | –
8 | COc1ccc2c(c1)c(C=C1Oc3cc(O)cc(O)c3C1=O)c(C)n2CCCCCl [Example 87, 2-{[1-(4-chlorobutyl)-5-methoxy-2-methyl-1H-indol-3-yl]methylene}-4,6-dihydroxy-1-benzofuran-3(2H)-one] | < 24 | – | 6 | 142 | 72 | –
9 | COc1ccc2c(c1)c(C=C1Oc3cc(O)cc(O)c3C1=O)c(C)n2CCN1CCN(C)CC1 [Example 108, 4,6-dihydroxy-2-({5-methoxy-2-methyl-1-[2-(4-methylpiperazin-1-yl)ethyl]-1H-indol-3-yl}methylene)-1-benzofuran-3(2H)-one] | < 34 | – | – | 474 | 7.5 | 5
10 | COc1ccc2c(c1)c(/C=C1\Oc3cc(O)cc(O)c3C1=O)c(C)n2CCN1CCN(C)CC1 [Example 309, (2Z)-4,6-Dihydroxy-2-({5-methoxy-2-methyl-1-[2-(4-methylpiperazin-1-yl)ethyl]-1H-indol-3-yl}methylene)-1-benzofuran-3(2H)-one] | < 27 | 2 | – | 268 | 6.5 | –
